These results are taken from patent US7678803B2, “Quinazoline derivatives for the treatment of cancer” (Serenex, Inc., priority 2006, dated 2010).

This experiment has as its system HSP-90 (heat shock protein 90). The experiment in a line: Determination of affinity for HSP-90 (elution from purine affinity column). Further: key: +++: very high; ++: high; +: moderate. Conditions: relative binding affinity to HSP-90. The procedure: Affinity of test compounds for HSP-90 is determined as follows: Protein mixtures obtained from a variety of organ tissues (for example: spleen, liver and lung) are reversibly bound to a purine affinity column to capture purine-binding proteins, especially HSP-90. […] The elution profile of Formula I compounds is determined by 1-dimensional SDS polyacrylamide gel electrophoresis. Gels are stained with a fluorescent stain such as sypro ruby (a highly sensitive fluorescent protein stain that can readily detect less than 1 fmol of total protein, i.e., less than 0.04 ng for a 40 kDa protein) or silver nitrate. The gels are imaged using a standard flat bed gel imager and the amount of protein estimated by densitometry. The percent of HSP-90 protein eluted from the column at each concentration is determined and IC50 values are calculated from these estimates.
`Cc1nn(-c2ccc3c(N)ncc(C(N)=O)c3c2)c2c1C(=O)CC(C)(C)C2` [Compound 99, 1-amino-6-(3,6,6-trimethyl-4-oxo-4,5,6,7-tetrahydro-1H-indazol-1-yl)isoquinoline-4-carboxamide]: the Affinity entry is on record as “++”.
Next, `COCCCOc1c(-n2cc(C)c3c2CC(C)(C)CC3=O)ccc2c(N)ncnc12` [Compound 60, 1-(4-amino-8-(3-methoxypropoxy)quinazolin-7-yl)-3,6,6-trimethyl-6,7-dihydro-1H-indol-4(5H)-one]: “+++”.
In the case of `C#CCOc1cc(-n2cc(C)c3c2CC(C)(C)CC3=O)cc2ncnc(N)c12` [Compound 71, 1-(4-amino-5-(prop-2-ynyloxy)quinazolin-7-yl)-3,6,6-trimethyl-6,7-dihydro-1H-indol-4(5H)-one], the Affinity result is on record as “+”.
As to `Cc1nc(N)c2ccc(-n3cc(C)c4c3CC(C)(C)CC4=O)cc2n1` [Compound 40, 1-(4-amino-2-methylquinazolin-7-yl)-3,6,6-trimethyl-6,7-dihydro-1H-indol-4(5H)-one], the Affinity result was “+++”.
For `CCCCOc1c(-n2cc(C)c3c2CC(C)(C)CC3=O)ccc2c(N)ncnc12` [Compound 53, 1-(4-amino-8-butoxyquinazolin-7-yl)-3,6,6-trimethyl-6,7-dihydro-1H-indol-4(5H)-one] the value was “+++”.
Consider `CCCCSc1c(-n2cc(C)c3c2CC(C)CC3=O)ccc2c(N)ncnc12` (centres unmarked) [Compound 72, 1-(4-amino-8-(butylthio)quinazolin-7-yl)-3,6-dimethyl-6,7-dihydro-1H-indol-4(5H)-one], for which the Affinity entry was “++”.
For the molecule `Cc1cn(-c2ccc3c(N)ncc(C(=O)O)c3c2)c2c1C(=O)CC(C)(C)C2` [Compound 106, 1-amino-6-(3,6,6-trimethyl-4-oxo-4,5,6,7-tetrahydro-1H-indol-1-yl)isoquinoline-4-carboxylic acid], the Affinity result was “++”.
Regarding `Cc1cn(-c2ccc3c(N)ncnc3c2)c2c1C(=O)CCC2` [Compound 45, 1-(4-aminoquinazolin-7-yl)-3-methyl-6,7-dihydro-1H-indol-4(5H)-one], the Affinity result is “++”.
As to `Cc1nn(-c2ccc3c(N)ncnc3c2)c2c1C(=O)CCC2` [Compound 88, 1-(4-aminoquinazolin-7-yl)-3-methyl-6,7-dihydro-1H-indazol-4(5H)-one], the Affinity result is reported as “+”.
Next, `Cc1cn(-c2ccc3c(N)ncnc3c2SCCNC(=O)OC(C)(C)C)c2c1C(=O)CC(C)(C)C2` [Compound 77, tert-butyl 2-(4-amino-7-(3,6,6-trimethyl-4-oxo-4,5,6,7-tetrahydro-1H-indol-1-yl)quinazolin-8-ylthio)ethylcarbamate]: “++”; `Cc1cn(-c2ccc3c(N)ncnc3c2SCCO)c2c1C(=O)CC(C)(C)C2` [Compound 93, 1-(4-amino-8-(2-hydroxyethylthio)quinazolin-7-yl)-3,6,6-trimethyl-6,7-dihydro-1H-indol-4(5H)-one]: “+++”; `Cc1cn(-c2ccc3c(N)nc(N)nc3c2)c2c1C(=O)CC(C)(C)C2` [Compound 41, 1-(2,4-diaminoquinazolin-7-yl)-3,6,6-trimethyl-6,7-dihydro-1H-indol-4(5H)-one]: “+++”.
For `CC1(C)CC(=O)c2c(C(F)(F)F)nn(-c3ccc4c(N)ncc(Br)c4c3)c2C1` [Compound 46, 1-(1-amino-4-bromoisoquinolin-6-yl)-6,6-dimethyl-3-(trifluoromethyl)-6,7-dihydro-1H-indazol-4(5H)-one], the Affinity entry is listed as “+”.
For the molecule `Cc1cn(-c2ccc3c(N)ncnc3c2O)c2c1C(=O)CC(C)(C)C2` [Compound 68, 1-(4-amino-8-hydroxyquinazolin-7-yl)-3,6,6-trimethyl-6,7-dihydro-1H-indol-4(5H)-one], the Affinity result is reported as “+++”.
Next, `Cc1cn(-c2ccc3c(Cl)nccc3c2)c2c1C(=O)CC(C)(C)C2` [Compound 44, 1-(1-chloroisoquinolin-6-yl)-3,6,6-trimethyl-6,7-dihydro-1H-indol-4(5H)-one]: “+”; `COCCNc1c(-n2cc(C)c3c2CC(C)(C)CC3=O)ccc2c(N)ncnc12` [Compound 56, 1-(4-amino-8-(2-methoxyethylamino)quinazolin-7-yl)-3,6,6-trimethyl-6,7-dihydro-1H-indol-4(5H)-one]: “+++”; `Cc1nn(-c2ccc3c(N)ncnc3c2F)c2c1C(=O)CC(C)(C)C2` [Compound 95, 1-(4-amino-8-fluoroquinazolin-7-yl)-3,6,6-trimethyl-6,7-dihydro-1H-indazol-4(5H)-one]: “+++”.
For `CC(C)Cc1nn(-c2ccc3c(N)ncnc3c2)c2c1C(=O)CC(C)(C)C2` [Compound 87, 1-(4-aminoquinazolin-7-yl)-3-isobutyl-6,6-dimethyl-6,7-dihydro-1H-indazol-4(5H)-one] the value was “+++”; for `COc1cc(-n2cc(C)c3c2CC(C)(C)CC3=O)cc2ncnc(N)c12` [Compound 76, 1-(4-amino-5-methoxyquinazolin-7-yl)-3,6,6-trimethyl-6,7-dihydro-1H-indol-4(5H)-one], “++”; for `Cc1cn(-c2cc(F)c3c(N)ncnc3c2)c2c1C(=O)CC(C)(C)C2` [Compound 63, 1-(4-amino-5-fluoroquinazolin-7-yl)-3,6,6-trimethyl-6,7-dihydro-1H-indol-4(5H)-one], “+”.
Next, `Cc1cn(-c2ccc3c(N)ncnc3c2Cl)c2c1C(=O)CC(C)(C)C2` [Compound 80, 1-(4-amino-8-chloroquinazolin-7-yl)-3,6,6-trimethyl-6,7-dihydro-1H-indol-4(5H)-one]: “++”.
As to `Cc1nn(-c2ccc3c(N)ncc(C#N)c3c2)c2c1C(=O)CC(C)(C)C2` [Compound 98, 1-amino-6-(3,6,6-trimethyl-4-oxo-4,5,6,7-tetrahydro-1H-indazol-1-yl)isoquinoline-4-carbonitrile], the Affinity entry is listed as “++”.
Next, `Cc1cn(-c2ccc3c(N)ncc(/C(N)=N/O)c3c2)c2c1C(=O)CC(C)(C)C2` [Compound 105, (Z)-1-amino-N′-hydroxy-6-(3,6,6-trimethyl-4-oxo-4,5,6,7-tetrahydro-1H-indol-1-yl)isoquinoline-4-carboximidamide]: “+++”.
